Like-named read-outs stand apart in the source and are kept apart here.
What was measured:
[1] = tested on: asexual blood stages of Pf K1 (drug resistant); set-up: method as in PMID 29866868, PMID 31998692; settings: cited from earlier work; for IC50: asexual blood stage Pf K1, multidrug resistant, SYBR Green I, ± SEM
[2] = tested on: asexual blood stages of Pf NF54 (drug sensitive); set-up: method as in PMID 29866868, PMID 31998692; settings: asexual blood stage Pf NF54, CQ sensitive; SYBR Green I; ± SEM; cited from earlier work
[3] = tested on: early-stage (EG) Pf NF54 gametocytes; set-up: method as in PMID 29866868; settings: early-stage gametocytes >95% stages II-III; 48 h incubation; ± SEM; cited from earlier work
[4] = set-up: method as in PMID 34097488; settings: cited from earlier work
[5] = tested on: asexual blood stages of Pf W2 (drug resistant); set-up: method as in PMID 29866868, PMID 31998692; settings: cited from earlier work
P. berghei sporozoites = settings: cited from earlier work; for Maximum inhibition % P. berghei sporozoites: ref S3; for IC50: luciferase-expressing P. berghei ANKA GFP-Luc-SMcon sporozoites in HepG2 cells, 48 h, ± SD, ref S3 (7)
[6] = tested on: late-stage (LG) Pf NF54 gametocytes; set-up: method as in PMID 29866868; settings: late-stage gametocytes >90% stages IV-V; 48 h incubation; ± SEM; cited from earlier work
[7] = tested on: type II tachyzoites (PRU-Luc-GFP); settings: sc 10 mg/kg/d for 8 days; cited from earlier work
[8] = tested on: TM93-C1088 (atovaquone and CQ resistant); set-up: method as in ref S2; settings: [3H]-hypoxanthine assay; ref S2; read-out: Antimalarial activities IC50 TM93-C1088; cited from earlier work
[9] = tested on: TM91-C235 (CQ and MFQ resistant); set-up: method as in ref S2; settings: [3H]-hypoxanthine assay; ref S2; read-out: Antimalarial activities IC50 TM91-C235; cited from earlier work
HepG2 = settings: cited from earlier work
7G8 (CQ resistant) = tested on: 7G8 (CQ resistant); set-up: method as in ref S2; settings: [3H]-hypoxanthine assay; ref S2; read-out: Antimalarial activities IC50 7G8; cited from earlier work
TM-C2B = tested on: TM-C2B; set-up: method as in ref S2; settings: [3H]-hypoxanthine assay; ref S2; read-out: Antimalarial activities IC50 TM-C2B; cited from earlier work
W2 (CQ resistant) = tested on: W2 (CQ resistant); set-up: method as in ref S2; settings: [3H]-hypoxanthine assay; ref S2; read-out: Antimalarial activities IC50 W2; cited from earlier work
D6 (CQ sensitive) = tested on: D6 (CQ sensitive); set-up: method as in ref S2; settings: [3H]-hypoxanthine assay; ref S2; read-out: Antimalarial activities IC50 D6; cited from earlier work
[10] = Cytotoxicity (LDH assay) against HepG2 cells; format: cell-based; settings: human
Description: Cytotoxicity against mammalian hepatocellular carcinoma cells (HepG2 cells) was determined using the lactate dehydrogenase assay (LDH, Biovision Inc., Milpitas, CA, USA). […] Compound working solutions were prepared from 10 mM stock solutions (100% DMSO) in complete DMEM to a final DMSO (Sigma-Aldrich) conc. of <0.1% (vol/vol). […] Data analysis was performed using GraphPad Prism (version 6) software.

In the case of `CO[C@H]1O[C@@H]2O[C@@]3(C)CC[C@H]4[C@H](C)CC[C@@H]([C@H]1C)[C@@]24OO3` [Artemether 3, Artemether], the IC50 [1] is listed as 9 ± 2 nM, the “RI (resistance index) = IC50 K1/IC50 NF54” value [1] is listed as 4.8 and the IC50 [2] is listed as 1.86 ± 0.17 nM. For the same compound, the IC50 [3] was 37.7 ± 2 nM, the “F% (oral bioavailability)” value [4] was 2% and the Cmax ([4]; oral administration, same dose, same murine model) was 600 nM. For the same compound, the IC50 ([5]; asexual blood stage Pf W2, multidrug resistant, SYBR Green I, ± SEM) was 7 ± 1 nM, the “RI = IC50 W2/IC50 NF54” value [5] was 3.8 and the “Maximum inhibition % P. berghei sporozoites” value (P. berghei sporozoites; at 10 µM) was 49.4%. For the same compound, the IC50 (P. berghei sporozoites) was > 104 nM, the IC50 (P. berghei sporozoites; listed as artemether 3) was > 10000 nM and the IC50 [6] was 136 ± 85.9 nM.
For `C[C@@H]1CC[C@H]2[C@@H](C)C(=O)O[C@@H]3O[C@@]4(C)CC[C@@H]1[C@]32OO4` [Artemisinin 1, Artemisinin, reference compound], the “mice surviving the infection, acute phase” value [7] is listed as “all mice treated with artemisinin succumbed to infection”.
For `O=C1C(O)=C([C@H]2CC[C@H](c3ccc(Cl)cc3)CC2)C(=O)c2ccccc21` [Atovaquone], the IC50 [8] is listed as 18800 nM, the IC50 [9] is listed as 2.2 ± 0.7 nM and the EC50 (HepG2) is listed as > 250 nM. The “SI = EC50 HepG2/IC50 P. berghei sporozoites” value (HepG2; ref S3) was > 100, the IC50 (7G8 (CQ resistant)) was 3.1 ± 0.9 nM and the IC50 (TM-C2B) was 31800 nM. For the same compound, the “Maximum inhibition % P. berghei sporozoites” value (P. berghei sporozoites; at 0.5 µM) was 94.85±2.76% and the IC50 (P. berghei sporozoites) was 2.52 ± 0.997 nM.
For `CCN(CC)CCCC(C)Nc1ccnc2cc(Cl)ccc12` (stereo not drawn) [Chloroquine], the IC50 [8] is listed as 360 ± 38 nM, the IC50 [9] is listed as 70 ± 12 nM and the IC50 (7G8 (CQ resistant)) is listed as 84 ± 18 nM. The IC50 [1] was 154 ± 14 nM, the IC50 (W2 (CQ resistant)) was 195 ± 70 nM and the IC50 [2] was 10 ± 3 nM. The IC50 (D6 (CQ sensitive)) was 16 ± 2 nM, the IC50 (TM-C2B) was 95 ± 23 nM and the IC50 at 24 h [10] was 58400 nM.

Reference: paper PMC8704606, “The Artemiside-Artemisox-Artemisone-M1 Tetrad: Efficacies against Blood Stage P. falciparum Parasites, DMPK Properties, and the Case for Artemiside” (Pharmaceutics, 2021)
